How the values were obtained:
Type in all cases: in vivo
[1] = system: creeping bentgrass (Agrostis palustris) putting green; assay: Example 11, 2015 spring green-up (dormancy break) study: visual turfgrass biomass rating; conditions: urea only 0.2 lb. N/1000 ft^2, no bio-adjuvant; scale 1-5
Procedure: […] Objective biomass ratings were also performed based on an increase in dried weight of clippings. Clippings were collected over pre-measured plot areas in each treatment replicate using a Toro® brand walk-behind greens mower Model Greensmaster 8000 at the height described in this Example and dried in a drying oven (60° C.) for approximately 48 hours before being weighed.
(§1) Treatments were applied in the same manner and using the same equipment as previously described in Example 1. Turfgrass quality ratings and biomass ratings were performed as described in Example 1. Clippings were also collected as described in Example 1.
(§2) Treatments were applied once only to 2 ft ([…])×10.5 ft (3.2 m) plots of turfgrass on Apr. 1, 2015, while the turfgrass was still in winter dormancy (desiccated, brown, and thin). No additional applications were made to the study area. The study was rated visually for turfgrass biomass increase on Apr. 3, 2015 (2 days after treatment), on Apr. 11, 2015, and on Apr. 17, 2015. Turfgrass quality ratings were taken on Apr. 11, 2015 and Apr. 17, 2015. Turfgrass clippings were collected, dried, and weighed on Apr. 19, 2015 and May 2, 2015.

[2] = system: creeping bentgrass (Agrostis palustris) putting green; assay: Example 11: turfgrass quality rating; conditions: scale 1-9, urea 0.2 lb. N/1000 ft^2
Procedure: as §1, §2

[3] = system: creeping bentgrass (Agrostis palustris) putting green; assay: Example 11: dried clippings weights; conditions: urea only 0.2 lb. N/1000 ft^2, no bio-adjuvant
Procedure: Some biomass ratings were subjective visual estimations based on appearance of a combination of increased biomass and increased density on a 1 (least increase) to 9 (most increase) scale. Objective biomass ratings were also performed based on an increase in dried weight of clippings. Clippings were collected over pre-measured plot areas in each treatment replicate using a Toro® brand walk-behind greens mower Model Greensmaster 8000 at the height described in this Example and dried in a drying oven (60° C.) for approximately 48 hours before being weighed.
as §1, §2

NC(N)=O [Urea only]
Appearance (Biomass Increase) Apr. 3, 2015 Mean [1]: 1.5
Appearance (Biomass Increase) Apr. 11, 2015 Mean [1]: 2.5
Appearance (Biomass Increase) Apr. 17, 2015 Mean [1]: 3
Appearance (Biomass Increase) Apr. 25, 2015 Mean [1]: 2.25
Turfgrass Quality ([2]; Apr. 11, 2015): 5.5
Turfgrass Quality ([2]; Apr. 17, 2015): 5.5
Turfgrass Quality ([2]; Apr. 25, 2015): 5.75
Clippings (Biomass) Dry wt (g) Apr. 19, 2015 Mean [3]: 4.623 g
Clippings (Biomass) Dry wt (g) May 2, 2015 Mean [3]: 6.175 g

— US20170265465A1, “BIORATIONAL TREATMENT PRODUCTS AND METHODS OF USING SAME” (Board of Trustees of Michigan State University, priority 2014, published 2017)
